According to article PMC9961652 (International Journal of Molecular Sciences, 2023):
Read-outs that look alike come from different tables or passages of the source.

What was measured:
[1] = molecular target: T1, RhoA-LARG interaction (Homo sapiens, UniProt P61586); test: In vitro complex-formation assay of RhoA with LARG DH-PH domain; assay type: binding; settings: 20 µM; pull-down assay conditions, 4 °C, 1 h
T1 construct: 100 ng of purified full-length RhoA
Experimental: (A) A complex-formation assay tested the inhibitory effects of 20 µM UC-177618 and UC-177619 on RhoA interaction with the LARG DH-PH domain. […] After incubating the compound-RhoA-LARG mixture at 4 °C for 1 h, the beads associated with RhoA were detected with anti-RhoA Western blotting. (B,C) Top view of the predicted structural contacts of UC-177618 and UC-177619 in the binding pocket around the Trp58 residue of RhoA.
(A) A complex-formation assay tested the inhibitory effects of R-G04 and S-G04 on RhoA interaction with the LARG DH-PH domain. MBP-(His)6-tagged LARG (100 ng) was immobilized on Amylose beads. Binding buffer containing full-length RhoA (100 ng) was pre-incubated with different concentrations of R-G04 (25 µM or 50 µM), and S-G04 (5 µM or 10 µM) was added to the beads. After incubating the compound-RhoA-LARG mixture at 4 °C for 1 h, the beads associated with RhoA were detected with anti-RhoA Western blotting. (B) Top view of the predicted structural contacts of R-G04 and S-G04 in the binding pocket around the Trp58 residue of RhoA.
In total, 100 ng of purified MBP (Maltose-binding protein)-(His)6-tagged LARG DH-PH was immobilized on 20 µL of suspended amylose beads (No. E8021S; New England Biolabs Inc., Ipswich, MA, USA) by incubating them in an orbital shaker at 4 °C for 30 min in binding buffer (20 mM Tris·HCl (pH 7.6), 100 mM NaCl, 0.01% Triton X-100, 5mM EDTA, and 5 mM MgCl2). The compounds were added to the binding buffer containing 100 ng of purified full-length RhoA and pre-incubated at 4 °C for 30 min under constant agitation. The Amylose beads bound to LARG were washed thrice with binding buffer to get rid of unbound LARG, and the pre-incubated compound-RhoA mixture was added to the beads. This LARG-compound-RhoA mixture was incubated in the orbital shaker at 4 °C for 1 h. The beads were washed three times, and the amount of RhoA protein co-precipitated with the MBP-fusion-bound beads was detected with anti-RhoA Western blotting.

[2] = system: washed human platelets; test: Wash-out reversibility of inhibition of collagen-induced platelet aggregation; assay type: cell-based
Experimental: The reversible inhibition of Rhosin in collagen-induced platelet aggregation was assessed with similar wash-out experiments, and this reversible nature of Rhosin makes it a valuable antiplatelet drug candidate (Supporting Information Figure S4A,B). After confirming the structures of the above six active analogs, similar wash-out experiments were performed to compare the reversible function of the active analogs with Rhosin reversibility.

[3] = system: washed human platelets; test: Collagen-induced platelet aggregation, light transmission aggregometry (Born method); assay type: cell-based; settings: for IC50: Homo sapiens, collagen-induced platelet aggregation, compounds without IC50 determination estimated from percent inhibition at 20 µM, read-out: IC50 (SAR table); for IC50 / activity at 20 µM: Platelet; for activity at 20 µM: compound 20 µM, washed human platelets, means ± SDs of three experiments, 100% = agonist alone
Experimental: Light transmission aggregometry, i.e., the Born method, was used to determine in vitro antiplatelet aggregation activity using collagen as the agonist for platelet aggregation. Collagen was selected as the agonist, since it is the most thrombogenic component of the subendothelial layer. Collagen also serves as a substrate for platelet adhesion and as an inducer of platelet activation.
All experiments using human blood from healthy volunteers were performed according to the protocols approved by the Institutional Review Board at Cincinnati Children’s Hospital Medical Center, Cincinnati, Ohio. Each volunteer was required to sign an informed consent form approved by the IRB. Procedures for drawing human blood, isolating platelet-rich plasma (PRP), and preparing washed platelet suspensions were the same as those previously reported. […] PRP was obtained by means of the centrifugation of blood at 1400 rpm for 15 min at room temperature. PRP was centrifuged at 4000 rpm for 10 min at room temperature, and the platelet pellet was resuspended in HEPES Tyrode’s solution (pH 7.4) without calcium. Platelets were counted using Hemavet 950FS (Drew Scientific, Oxford, CT, USA), and the count was adjusted to 2.5 × 10^8/mL for aggregation studies.
The in vitro antiplatelet activity of the compounds was assayed on washed human platelets using light transmission aggregometry. Platelet aggregation was performed using a 4-channel Lumi-aggregometer (Chronolog, PA, USA) at 37 °C and stirring speed of 900 rpm. A volume of 250 µL of washed human platelets (2.5 × 10^8/mL) was pre-warmed to 37 °C along with the compounds or DMSO (0.1%) for 2 min before the addition of agonists such as collagen, AA, U46619 (a stable synthetic analog of thromboxane A2), ADP, and thrombin. For ATP secretion, platelets were pre-incubated with a luciferin/luciferase kit (Chrono-lume®) for 30 s at 37 °C before the addition of the agonist. The reactions were allowed to proceed for at least 4 min, and the results of platelet aggregation and ATP secretion were determined using Aggrolink software. Platelet aggregation was expressed as the maximum change in the light transmission, where the 100% value corresponded to treatment with the agonist alone. Compounds were evaluated in triplicate at nine compound concentrations ranging from 50 µM to 1 µM.

[4] = system: RhoA; test: RhoA-GTP formation, GST-Rhotekin effector pull-down assay in collagen-stimulated platelets; assay type: cell-based, human; settings: 20 µM, 2 min pre-incubation; collagen 1 µg/mL for 4 min
Experimental: Next, the ability of the six compounds to suppress RhoA activity in platelets was assessed by subjecting them to a GST (Glutathione-S-transferase)-Rhotekin effector pull-down assay. The compounds were incubated with washed human platelets for 2 min before being stimulated with 1 µg/mL collagen. The analogs inhibited the activation of RhoA at the 20 µM concentration (Figure 2A,B). […] After confirming that these analogs could prevent RhoA activation and the phosphorylation of the MLC, their ability to disrupt complex-formation between RhoA and LARG was tested. […] These findings indicate that the active analogs inhibit RhoA activation by disrupting the binding between RhoA and its GEF.
(A,B) Washed human platelets were incubated with collagen (1 µg/mL) for 4 min, and the levels of RhoA-GTP formation were quantified with a GST-Rhotekin effector pull-down assay. The platelets were pre-incubated with 20 µM UC-177618, UC-177619, UC-177628, UC-177629, […], or […] for 2 min before being stimulated with collagen. The addition of ice-cold lysis buffer terminated the reaction. […] Relative amounts of the GTP-bound form of RhoA were quantified with densitometry measurements of total RhoA (T-RhoA) and normalized to untreated platelets. (C,D) The addition of 20 µM of active Rhosin-related compounds to washed human platelets 2 min before stimulation with collagen blocked the phosphorylation of the myosin light chain (p-MLC). The reactions were terminated after 4 min by adding 4x Laemmli sample buffer. The samples were processed for Western blotting and probed for MLC and p-MLC, and phosphorylation was quantified by measuring the densitometry of total MLC (T-MLC). The differences between DMSO- and Rhosin-related compounds were analyzed with t-test, and the results are shown as means ± SDs of three independent experiments. (* p < 0.05, ** p < 0.01, *** p < 0.001, and **** p < 0.0001).
The relative levels of RhoA-GTP in washed human platelets were quantified with effector domains GST-Rhotekin pull-down assays as previously reported. A volume of 250 µL of washed human platelets (2.5 × 10^8/mL) was pre-warmed to 37 °C along with the compounds or DMSO (0.1%) for 2 min before being stimulated with collagen (1 µg/mL). The reactions were terminated 4 min after collagen stimulation by adding ice-cold lysis buffer (20 mM Tris·HCl (pH 7.6), 100 mM NaCl, 1% Triton X-100, 0.2% Sodium Deoxycholate, 10 mM MgCl2, 1 mM dithiothreitol, 1x protease inhibitor cocktail, and 1x phosphatase inhibitor cocktail). The supernatants were collected and subjected to the GST-Rhotekin pull-down assay. The total cell lysates were also blotted in parallel. GTP-bound RhoA was quantitatively detected with Western blotting using an anti-RhoA antibody. The relative amounts of RhoA were quantified with densitometry measurements and normalized to the untreated platelets.

[5] = read-out: % Platelet Aggregation, Collagen (1 µg/mL)
[6] = read-out: % Platelet Aggregation, Collagen (5 µg/mL)

T1 sequence (P61586 whole entry, the tested form may be a part): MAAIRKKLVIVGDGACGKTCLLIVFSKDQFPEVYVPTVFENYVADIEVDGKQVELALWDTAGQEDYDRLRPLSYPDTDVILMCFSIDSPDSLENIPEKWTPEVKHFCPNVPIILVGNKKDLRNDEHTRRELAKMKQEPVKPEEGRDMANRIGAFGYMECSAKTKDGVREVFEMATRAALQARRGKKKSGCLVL

| LARG binding to RhoA [1] | IC50 [3] | Compound | reversibility of inhibitory effect after wash-out [2] | activity at 20 µM [3, 5] | activity at 20 µM [3, 6] | activity in collagen-induced platelet aggregation (SAR statement) ([3]; relative to the quinoline analogs) | RhoA-GTP formation [4] |
| --- | --- | --- | --- | --- | --- | --- | --- |
| inhibit RhoA-LARG interaction | 0.82 µM | O=C(NNc1ccnc2cc(Cl)ccc12)c1ccc(Cl)c(Cl)c1 [UC-177619] | entirely reversible | 9.3 ± 3.5% | 12 ± 2.1% | slightly better potency | inhibited RhoA-GTP formation |
| inhibit RhoA-LARG interaction | 1.5 µM | O=C(NNc1ccnc2c(C(F)(F)F)cccc12)c1ccc(Cl)c(Cl)c1 [UC-177618] | entirely reversible | 5 ± 1.7% | 10.2 ± 4.1% | – | inhibited RhoA-GTP formation |
